Earlier results, collected in US20070264370A1, “Composition and methods for the treatment of joint pain using Angelica gigas Nakai extract and powder as combined with Glucosamine Sulfate, or Chondroitin Sulfate and HCL, or MSM, or aspirin, or Celedrin, and as combinations thereof in powder, pill, capsule, spray, liquid, and gelcap form” (priority 2006, published 2007).

Details: in mammal; oral administration in rats (Kim et al. 2003)

CC1(C)Oc2cc3oc(=O)ccc3cc2C[C@@H]1O [decursinol, Decursinol]
elimination half life (T1/2): about 3 hours
